Patent EP2298778A1, “IMIDAZOTHIAZOLE DERIVATIVE HAVING 4,7-DIAZASPIROÝ2.5¨OCTANE RING STRUCTURE” (Daiichi Sankyo Company, Limited, priority 2008, dated 2009)

test: Metabolic stability test (microsomal metabolism test); assay type: in vitro ADME; details: pH 7.4; human-derived liver microsomes, test compound remaining after addition of NADP+ and incubation at 37°C for 30 minutes; read-out: metabolic stability of T/C%
Outline: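 Test compound was added as a 3 µM solution to human liver microsomes (0.3–1.5 mgP/mL) in pH 7.4 phosphate buffer with G6P, G6P dehydrogenase and MgCl2. This was preincubated 20 min at 37°C, then 3 mM NADP+ solution was added and incubated 30 min at 37°C. T/C (%) is compound remaining after versus before NADP+ addition.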

Row | SMILES | remaining at 0.5 h [%]
1 | CC(C)C1=C(C(=O)N2[C@H](C)CC[C@H]2C(=O)N2CC3(CC3)N(C)C[C@H]2C)SC2=N[C@@](C)(c3ccc(Cl)nc3)[C@@H](c3ccc(Cl)c(F)c3)N21 [Example 24, (6R)-7-[(5R)-1-{[(5R,6S)-5-(4-chloro-3-fluorophenyl)-6-(6-chloropyridin-3-yl)-3-isopropyl-6-methyl-5,6-dihydroimidazo[2,1-b][1,3]thiazol-2-yl]carbonyl}-5-methyl-L-prolyl]-4,6-dimethyl-4,7-diazaspiro[2.5]octane] | ≥ 50
2 | CC(C)C1=C(C(=O)N2[C@H](C)CC[C@H]2C(=O)N2CCN(C)C3(CC3)C2)SC2=N[C@@](C)(c3ccc(Cl)cc3)[C@@H](c3ccc(Cl)c(F)c3)N21 [Example 6, 7-[(5R)-1-{[(5R,6S)-5-(4-chloro-3-fluorophenyl)-6-(4-chlorophenyl)-3-isopropyl-6-methyl-5,6-dihydroimidazo[2,1-b][1,3]thiazol-2-yl]carbonyl}-5-methyl-L-prolyl]-4-methyl-4,7-diazaspiro[2.5]octane] | ≥ 50
3 | CC(C)C1=C(C(=O)N2[C@H](C)CC[C@H]2C(=O)N2CCN(C)C3(CC3)C2)SC2=N[C@@](C)(c3ccc(Cl)cc3)[C@@H](c3ccc(Cl)cc3)N21 [Example 2, 7-[(5R)-1-{[(5R,6S)-5,6-bis(4-chlorophenyl)-3-isopropyl-6-methyl-5,6-dihydroimidazo[2,1-b][1,3]thiazol-2-yl]carbonyl}-5-methyl-L-prolyl]-4-methyl-4,7-diazaspiro[2.5]octane] | ≥ 50
4 | CC(C)C1=C(C(=O)N2CCC[C@H]2C(=O)N2CC3(CC3)NC[C@H]2C)SC2=N[C@@](C)(c3ccc(Cl)nc3)[C@@H](c3ccc(Cl)c(F)c3)N21 [Example 64, (6R)-7-(1-{[(5R,6S)-5-(4-chloro-3-fluorophenyl)-6-(6-chloropyridin-3-yl)-3-isopropyl-6-methyl-5,6-dihydroimidazo[2,1-b][1,3]thiazol-2-yl]carbonyl}-L-prolyl)-6-methyl-4,7-diazaspiro[2.5]octane] | ≥ 50
5 | CC(C)C1=C(C(=O)N2[C@H](C)CC[C@H]2C(=O)N2CC3(CC3)N(C(=O)C(F)(F)F)C[C@@H]2C)SC2=N[C@@](C)(c3ccc(Cl)nc3)[C@@H](c3ccc(Cl)c(F)c3)N21 [Example 60, (6S)-7-[(5R)-1-{[(5R, 6S)-5-(4-chloro-3-fluorophenyl)-6-(6-chloropyridin-3-yl)-3-isopropyl-6-methyl-5,6-dihydroimidazo[2,1-b][1,3]thiazol-2-yl]carbonyl}-5-methyl-L-prolyl]-6-methyl-4-(trifluoroacetyl)-4,7-diazaspiro[2.5]octane] | ≥ 50

The remaining lines, values ahead:

Row | remaining at 0.5 h [%] | SMILES
6 | ≥ 50 | CC(C)C1=C(C(=O)N2[C@@H](C)CC[C@H]2C(=O)N2CC3(CC3)NC[C@@H]2C)SC2=N[C@@](C)(c3ccc(Cl)nc3)[C@@H](c3ccc(Cl)c(F)c3)N21 [Example 65, (6S)-7-[(5S)-1-{[(5R,6S)-5-(4-chloro-3-fluorophenyl)-6-(6-chloropyridin-3-yl)-3-isopropyl-6-methyl-5,6-dihydroimidazo[2,1-b][1,3]thiazol-2-yl]carbonyl}-5-methyl-L-prolyl]-6-methyl-4,7-diazaspiro[2.5]octane]
7 | ≥ 50 | CCOc1ccc([C@]2(C)N=C3SC(C(=O)N4[C@H](C)CC[C@H]4C(=O)N4CCNC5(CC5)C4)=C(C(C)C)N3[C@@H]2c2ccc(Cl)c(F)c2)cn1 [Example 73, 7-[(5R)-1-{[(5R,6S)-5-(4-chloro-3-fluorophenyl)-6-(6-ethoxypyridin-3-yl)-3-isopropyl-6-methyl-5,6-dihydroimidazo [2,1-b] [1,3]-thiazol-2-yl]-carbonyl}-5-methyl-L-prolyl]-4,7-diazaspiro[2.5]octane]
8 | ≥ 50 | CC(C)C1=C(C(=O)N2[C@@H]3C[C@@H]3C[C@H]2C(=O)N2CC3(CC3)NC[C@@H]2C)SC2=N[C@@](C)(c3ccc(Cl)nc3)[C@@H](c3ccc(Cl)c(F)c3)N21 [Example 70, (6S)-7-{[(1R,3S,5R)-2-{[(5R,6S)-5-(4-chloro-3-fluorophenyl)-6-(6-chloropyridin-3-yl)-3-isopropyl-6-methyl-5,6-dihydroimidazo[2,1-b][1,3]thiazol-2-yl]carbonyl}-2-azabicyclo[3.1.0]hex-3-yl]carbonyl}-6-methyl-4,7-diazaspiro[2.5]octane]
